Results on seven molecules are retold here after ChEMBL document CHEMBL3430912, “GSK Tres Cantos Anti-Kinetoplastid Screening (TCAKS) Data”.

The nature of data set [1]: GSK_TCAKS: pIC50 HepG2 human cell line viability assay using luminiscence. […] Seeding density was checked to ensure that new mono-layers were not more than 50% confluent at the time of harvesting. Cell suspension was added to 500 mL of the same medium at a final density of 1.2 * 10^5 cells/mL. This cell suspension was dispensed (25 uL, 3000 cells per well) into 384-well clear-bottom plates using a Multidrop Combi dispenser. Prior to addition of the cell suspension, the screening compounds (250 nL) were pre-dispensed into the plates with an Echo liquid handler. Plates were incubated for 48 h at 37C, 5% CO2. After incubation, plates equilibrated at room temperature for 30 min before proceeding to develop the luminescent signal. The signal developer, CellTiter-Glo Reagent, was allowed to equilibrate at room temperature for 30 min and added to the plates (25uL per well) using a Multidrop Combi dispenser. Plates were left for 10 min at room temperature for stabilization and then read using a ViewLux. It counts as toxicity, cell-based. (Cellular ATP, detected with luciferase, serves as a proxy for viable cell number.)

The test system of data set [2] is Trypanosoma cruzi. Kind of data set: (§1) GSK_TCAKS: pIC50 H2C9 Imaging: H9c2 Host Cardiomyocytes. […] Cells were then washed once with PBS before infection. T. cruzi trypomastigotes, collected at days 5 to 8 after infection from LLC-MK2 parasite infected cultures, were allowed to swim out for 4h at 37C from a centrifuged pellet (2,500 rpm/10 min/room temperature). Trypomastigotes were then collected and counted in a CASY Cell Counter. Trypomastigotes, in supplemented DMEM, were added to H9c2 cultures in a multiplicity of infection of 1 and incubated for 18 h. Cells were washed once with PBS before incubation of the infected H9c2 monolayer with trypsin (Life-Technologies) to detach cells from the flask. Cells were counted in a CASY Cell Counter using a 150 um capillary and their density set at 5 * 10^4 cells per mL in supplemented assay DMEM. Infected H9c2 were dispensed into 384-well poly-lysine coated assay plates at 50uL per well using a Multidrop Combi dispenser. After seeding them, the plates were incubated at 37C, 5% CO2 for 72h. Cultures were then fixed and stained by addition of 50 uL of a solution containing 8% formaldehyde and 4 uM DRAQ5 DNA dye (BioStatus, UK) per well. […] Five images were collected per well for reliable statistical analysis. Automated image analysis was performed with a script developed on Acapella High Content Imaging and Analysis Software (PerkinElmer). Output: Number of H9c2 Host Cardiomyocytes nuclei to determine drug-related cytotoxicity. The settings on record: H9c2, 4 h. In kind it is functional, organism-based, Rattus norvegicus.

In data set [3] the test system is Leishmania donovani. Kind of data set: GSK_TCAKS: pIC50 Leishmania donovani Imaging: Amastigotes/Macrophages. Assay plates (384-well) were prepared by adding 250nL of compound to each well. For single shot assay, the final compound concentration was 5 uM. […] Automated image analysis was performed with a script developed on Acapella High Content Imaging and Analysis Software (PerkinElmer). Output: Average number of amastigotes per macrophage cell were reported for each well. It counts as functional, organism-based, Homo sapiens. The settings on record: THP-1.

Another data set relates to NIH3T3. Briefly: GSK_TCAKS: pIC50 NIH 3T3 cell line viability assay using luminiscence. Tissue culture surface treated assay plates (1536-well) were used. […] The 100% cells survival control was determined exposing the host-cells to a 0.5% DMSO concentration, whereas the 100% toxicity control was achieved by seeding the cells in presence of Amphotericin B at 50uM. Plates were incubated for four days at 37C, 5% CO2. The assay readout was developed by addition of 5uL of CellTiter-Glo Reagent following the manufacturer's instructions. Luminiscence was measured using a ViewLux. In kind it is functional, cell-based. Particulars: Mus musculus, NIH3T3, 96 h.

Data set [4] has as its system Trypanosoma brucei brucei. Briefly: GSK_TCAKS: pIC50 Trypanosoma brucei viability assay using fluorescence intensity. Assay plates (1536-well) were prepared by dispensing 25nL of compound solution per well using an Echo acoustic dispenser (Labcyte). It counts as functional, organism-based. Particulars: Lister 427, 2 h.
The subject of data set [5] is Leishmania donovani. Briefly: GSK_TCAKS: pIC50 Leishmania donovani viability assay using fluorescence intensity. Assay plates (1536-well) were prepared by adding 30nL per well of compound. For single shot assay, the final compound concentration was 5uM. […] Briefly, eGFP LdBOB axenic amastigotes were harvested, fixed and counted in a CASY cell counter (Roche-Applied Science). A final concentration of 1.5 * 10^5 cells per well were prepared in amastigote media containing 500 U/mL penicillin/streptomycin (Invitrogen) and 6uL was dispensed to each experimental well using a Multidrop Combi dispenser (Thermo Scientific). 6uL of assay media was dispensed to control columns used as reference for 100% compound response. Following incubation for 72 h at 37C, 5% CO2, 2 uL of resazurin was added to each well at a final concentration of 0.5 mM in phosphate buffered saline (PBS) with IGEPAL (Sigma-Aldrich), 0.05% (v/v). It counts as functional, organism-based.

The test system of data set [6] is Trypanosoma cruzi. The description is as §1, with “Trypanosoma cruzi” for “H2C9”, “Amastigotes/Cell.” for “H9c2 Host Cardiomyocytes.”, “number” for “Number”, “amastigotes per cell as infection level measurement.” for “H9c2 Host Cardiomyocytes nuclei to determine drug-related cytotoxicity.”. In kind it is functional, organism-based, Rattus norvegicus. Particulars: H9c2, 4 h.

In data set [7] the test system is Leishmania donovani. Kind of data set: GSK_TCAKS: pIC50 Leishmania donovani Imaging: THP-1 Host Macrophages. Assay plates (384-well) were prepared by adding 250nL of compound to each well. For single shot assay, the final compound concentration was 5 uM. […] Automated image analysis was performed with a script developed on Acapella High Content Imaging and Analysis Software (PerkinElmer). Output: THP-1 cell count were reported for each well. It counts as functional, organism-based, Homo sapiens.

Data set [8] relates to Trypanosoma brucei brucei. Kind of data set: GSK_TCAKS: pIC50 Trypanosoma brucei viability assay using luminiscence. Assay plates (1536-well) were prepared. T. brucei cultures were harvested and counted in a CASY cell counter. A parasite suspension was prepared at a final concentration of 5 * 10^4 cells/mL in complete HMI9 medium and 6uL was dispensed to all wells containing compounds using a Multidrop Combi dispenser. 6uL of HMI9 media with 0.4% DMSO were dispensed to control columns. Plates were incubated for 24 h at 37C, 5% CO2 then tempered for 10 min at room temperature. ATP content was quantified by adding 4 uL of CellTiter-Glo Reagent (Promega) according to the manufacturer's instructions. Luminescence was measured using a ViewLux. It counts as functional, organism-based. Particulars: Lister 427, CASY.

The subject of data set [9] is Leishmania donovani. Kind of data set: GSK_TCAKS: pIC50 Leishmania donovani Imaging: Infected Macrophages. Assay plates (384-well) were prepared by adding 250nL of compound to each well. For single shot assay, the final compound concentration was 5 uM. […] Automated image analysis was performed with a script developed on Acapella High Content Imaging and Analysis Software (PerkinElmer). Output: Percent of infected macrophage cells were reported for each well. Particulars: THP-1. It counts as functional, organism-based, Homo sapiens.

In data set [10] the test system is Trypanosoma cruzi. Kind of data set: GSK_TCAKS: pIC50 Trypanosoma cruzi viability assay using beta-GAL activity. This assay was run at single shot at 5uM compound concentration per well. The biological reagents consisted of NIH-3T3 host cells and trypomastigotes parasitic cells; both cell types were set to a 3.3 * 10^5 cells/mL dilution in assay DMEM by means of a CASY cell counter device using a 60um capillary. 6 uL of the mixture were dispensed per well (about 1 * 10^3 host-cells and 1 * 10^3 parasites) with a Multidrop Combi dispenser. […] In all wells, the percentage of DMSO never exceeded 0.5%. Plates incubated for four days at 37C, 5% CO2. The substrate used for the assay fluorescence intensity (FLINT) readout was resorufin-beta-D-galactopiranoside (Sigma-Aldrich) at 5uM per well. It was diluted in PBS supplemented with the soft detergent Igepal (Fluka). In kind it is functional, organism-based, Mus musculus. The settings on record: Tulahuen, NIH3T3.

Data set [11] deals with Sterol 14-alpha demethylase (Trypanosoma cruzi (strain CL Brener), UniProt Q7Z1V1). Briefly: GSK_TCAKS: pIC50 CYP51 from Trypanosoma cruzi. In kind it is functional.
Data set [12] concerns Trypanosoma cruzi. Described as §1, with “Trypanosoma cruzi” for “H2C9”, “Infected Cells.” for “H9c2 Host Cardiomyocytes.”, “percentage” for “Number”, “infected cells per well as a second infection marker.” for “H9c2 Host Cardiomyocytes nuclei to determine drug-related cytotoxicity.”. In kind it is functional, organism-based, Rattus norvegicus. Particulars: H9c2, 4 h.

pIC50: −log10 of the molar value. Bounds are passed on as bounds.

Sequence of Sterol 14-alpha demethylase (Q7Z1V1 whole entry): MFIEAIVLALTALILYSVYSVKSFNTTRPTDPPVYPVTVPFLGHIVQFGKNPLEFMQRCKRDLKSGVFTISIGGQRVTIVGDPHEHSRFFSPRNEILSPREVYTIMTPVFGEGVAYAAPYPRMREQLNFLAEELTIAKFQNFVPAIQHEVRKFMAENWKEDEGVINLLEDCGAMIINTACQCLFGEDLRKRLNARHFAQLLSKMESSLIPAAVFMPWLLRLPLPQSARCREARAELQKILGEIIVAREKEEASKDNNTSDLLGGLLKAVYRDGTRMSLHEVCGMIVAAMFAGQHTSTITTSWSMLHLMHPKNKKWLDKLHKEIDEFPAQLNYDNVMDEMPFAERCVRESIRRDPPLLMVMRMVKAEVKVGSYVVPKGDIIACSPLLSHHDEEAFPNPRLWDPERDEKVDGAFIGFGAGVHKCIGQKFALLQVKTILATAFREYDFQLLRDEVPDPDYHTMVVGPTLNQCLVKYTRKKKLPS

Broadly, the IC50 is the midpoint of a concentration-inhibition curve. A lower IC50 goes with higher potency. The term pIC50 denotes the negative decadic logarithm of the IC50, by convention in mol/L. With `CC(C)(C)C(Cn1ccnc1)NC(=O)c1ccc2nc(C3CC3)oc2c1` (stereo unspecified), the IC50 at 48 h in data set [1] is above 100 µM. The negative logarithm of the IC50 (pIC50) in the data set with Trypanosoma cruzi [2] is below 4.30; with Leishmania donovani [3], below 4.30; with NIH3T3, below 4.30; in data set [4] it was below 4.40; with Leishmania donovani [5] it was 4.70; with Trypanosoma cruzi [6], 7.10. For the same molecule, the negative logarithm of the IC50 (pIC50) was 4.80 in the data set on Leishmania donovani [7]; below 4.40 in data set [8]; below 4.30 with Leishmania donovani [9]; 7.00 in the data set with Trypanosoma cruzi [10]; 7.00 in data set [11]; 7.00 in the data set with Trypanosoma cruzi [12].

For `CCC1Oc2cc(S(=O)(=O)N(C)CC(=O)N3CCc4ccccc4C3)c(C)cc2NC1=O` (stereo unspecified), the half-inhibitory concentration (IC50) at 48 h in [1] is above 100 µM. For the same molecule, the pIC50 was below 4.30 in the data set with Trypanosoma cruzi [2]; 4.50 in the data set on Leishmania donovani [3]; below 4.30 with NIH3T3; 4.60 in [4]; below 4.30 with Leishmania donovani [5]; 6.60 with Trypanosoma cruzi [6]. Further, the negative logarithm of the IC50 (pIC50) in the data set on Leishmania donovani [7] was below 4.30; in [8], 4.50; in the data set with Leishmania donovani [9], below 4.30; with Trypanosoma cruzi [10], 6.70; in [11], 6.10; with Trypanosoma cruzi [12] it was 6.60.

`Cc1nc(N2CCC(C(=O)N3CCC(O)(c4cccnc4)CC3)CC2)nc2ccc(C(C)C)cc12` showed an IC50 at 48 h in data set [1] of 79.4 µM. The negative-log IC50 (pIC50) in the data set on Trypanosoma cruzi [2] was 4.40; in the data set on Leishmania donovani [3], 5.00; in the data set on NIH3T3 it was 4.60; in data set [4], 4.70; in the data set on Leishmania donovani [5] it was below 4.30; in the data set on Trypanosoma cruzi [6], 6.40. Also, the pIC50 in the data set on Leishmania donovani [7] was 4.60; in [8] it was 4.50; in the data set on Leishmania donovani [9] it was 4.30; in the data set on Trypanosoma cruzi [10], 5.80; in [11], 6.90; in the data set on Trypanosoma cruzi [12], 6.50.

In data set [1], `CN(Cc1ccc(F)cc1)c1ccc(OCC(=O)N2CCCCC2c2cccnc2)nn1` (stereo unspecified) showed an IC50 at 48 h above 100 µM. In addition, the negative logarithm of the IC50 (pIC50) with Trypanosoma cruzi [2] is below 4.30; in the data set with Leishmania donovani [3], below 4.30; in the data set on NIH3T3 it was 5.00; in [4] it was below 4.40; in the data set with Leishmania donovani [5] it was 4.80; with Trypanosoma cruzi [6], 6.40. The negative-log IC50 (pIC50) was 4.50 with Leishmania donovani [7]; below 4.40 in [8]; below 4.30 with Leishmania donovani [9]; 6.50 with Trypanosoma cruzi [10]; 7.30 in data set [11]; 6.40 in the data set with Trypanosoma cruzi [12].

In data set [1], `Cc1ccc(NC(=O)C(C)n2nc([N+](=O)[O-])c(Br)c2C)cc1Cl` (stereo unspecified) had a half-inhibitory concentration (IC50) at 48 h of 79.4 µM. Also, the pIC50 was below 4.30 with Trypanosoma cruzi [2]; below 4.30 with Leishmania donovani [3]; 4.90 in the data set with NIH3T3; 4.80 in data set [4]; below 4.30 in the data set with Leishmania donovani [5]; 5.50 in the data set on Trypanosoma cruzi [6]. For the same molecule, the pIC50 in the data set with Leishmania donovani [7] is below 4.30; in data set [8], below 4.40; with Leishmania donovani [9] it was below 4.30; in the data set with Trypanosoma cruzi [10], 5.60; in data set [11] it was below 4.00; with Trypanosoma cruzi [12], 5.20.

The molecule `c1ccc(CCNCc2cncc3nc(-c4cnccn4)n(C4CCCCC4)c23)cc1` had an IC50 at 48 h in data set [1] above 100 µM. The negative logarithm of the IC50 (pIC50) with Trypanosoma cruzi [2] was below 4.30; with Leishmania donovani [3] it was below 4.30; in the data set on NIH3T3 it was 5.20; in data set [4], 4.50; with Leishmania donovani [5] it was below 4.30; with Trypanosoma cruzi [6], 6.90. The pIC50 is below 4.30 in the data set with Leishmania donovani [7]; below 4.40 in [8]; below 4.30 with Leishmania donovani [9]; 6.50 with Trypanosoma cruzi [10]; 7.00 in data set [11]; 6.90 in the data set on Trypanosoma cruzi [12].

As to `CN(Cc1nc2ccccc2s1)C(=O)C=Cc1cc2ccccc2o1`, in data set [1], the half-maximal inhibitory concentration (IC50) at 48 h was above 100 µM. For the same molecule, the pIC50 in the data set on Trypanosoma cruzi [2] is below 4.30; in the data set with Leishmania donovani [3] it was 4.80; in the data set with NIH3T3, 4.50; in data set [4] it was 4.50; with Leishmania donovani [5], 4.30; in the data set with Trypanosoma cruzi [6] it was 6.00. Further, the pIC50 was below 4.30 with Leishmania donovani [7]; below 4.40 in data set [8]; below 4.30 with Leishmania donovani [9]; 6.20 with Trypanosoma cruzi [10]; 6.80 in data set [11]; 6.10 in the data set on Trypanosoma cruzi [12].
